Reference: paper PMC9763021, “Comprehensive Assessment of Biomolecular Interactions of Morpholine-Based Mixed Ligand Cu(II) and Zn(II) Complexes of 2,2′-Bipyridine as Potential Anticancer and SARS-CoV-2 Agents: A Synergistic Experimental and Structure-Based Virtual Screening” (Bioinorganic Chemistry and Applications, 2022)

How the values were obtained:
BSA = BSA (Bos taurus, UniProt P02769); test: BSA fluorescence quenching (emission titration); type: binding, bovine; conditions: values in brackets; for KSV (BSA), SV method I: 350 nm; for P (BSA), ratio of fluorescence quantum efficiency: F/F0 vs 1/[BSA]; for Kq (BSA), SV method I: Kq=KSV/τ0; for ∆Gb° (BSA), SV method II: –RT lnKass
Description: The experiment was performed in the 200 to 800 nm region. This is supporting evidence for the complexes' manner of deoxyribonucleic acid binding. When DNA (200 μM) was present or absent, we carefully monitored the intensity variations between 610 nm and 510 nm during the initial emission and excitation of EB [6, 28, 37]. Similarly, emission titrations for BSA interaction with different concentrations between 2.5 μM and 25 μM for all substances were conducted in a Tris-HCl buffer solution (pH: 7.4) between the regions of 300 nm and 400 nm.
K SV is denoted as Stern–Volmer binding constant; Kass is represented as association binding constant; Kapp is represented as apparent binding constant, Kapp=KEB[EB]/[compound]=500/[compound], KEB = 10^7 M^−1 at the concentration of 50 μM EB; Gibb's free energy change ΔGb°=–RT lnKass; Kq is represented as bimolecular quenching rate constant/Stern–Volmer dynamic quenching rate constant (Kq=KSV/τ0), average life time of the biomolecular quenching in the absence of a quencher (τ0) = 10^−8 S; Gibb's free energy change ΔGb°=–RT lnKass (where R = […], T = 298 K); KLB is represented as Lineweaver–Burk (LWB) binding constant; KSA is represented as Scatchard association binding constant; Kapp is denoted as apparent binding constant; n is the number of binding sites; P is a ratio of fluorescence quantum efficiency of DNA bound and free complex (P=ɸb/ɸf), which is obtained as intercept from plot F/F0 vs. 1/[DNA], Error limit is ± 2.5% (P < 0.025).(12) Fcorr=Fobs×e^Aex×dex+Aem×dem/2=Fobs×e^Aex+Aem/2, where Fcorr and Fobs are represented as the IFE-corrected fluorescence and observed (uncorrected) emission intensities, respectively. dex and dem are denoted as the cuvette path lengths in the excitation and emission directions, respectively. Aex and Aem are represented as the change in absorbance at the excitation and fluorescence wavelengths, respectively.(13) F0 /F=1+KSVQ=1+Kq τ0, where [Q] is represented as the sample concentration, the emission intensities F0 and F of DNA/BSA in the absence and presence of the quencher (sample), respectively.(14) F0 /F−1=F0−F/F=KSVQlogF0−F/F=logKass+n logQ, (15) KEBEB=Kappcompound, (16) 1/F0−F=1/F0 KLBQ+1/F0 , (17) γ/CF =KSCn−γ, where γ = [(F0 − F)/F0], and CF is denoted as the concentration of sample alone.
Additionally, the intensity of bovine serum albumin was monitored at 350 nm (λex = 278 nm) during fluorescence titration. When increasing the sample concentrations, the BSA intensity diminishes dramatically owing to static quenching in the ground state. It is noted that the fluorophores of BSA are not clearly exposed to a shift in polarity. […] Additionally, the Stern–Volmer equations (12)-(13) were employed to analyze the data (Figure S27 and Table 4). […] They are also much exceeded compared to the collision quenching constant value (2.0 × 10^10 mol^−1·s^−1). Therefore, it is assumed that the static quenching process was brought on by adduct construction between the compounds and bovine serum albumin rather than a dynamic collision. However, fluorescence spectroscopy is generally plagued by the inner filter effect (IFE), which disturbs the spectral analysis in particular. The energizing ray is attenuated due to the highly concentrated solution sample. As a result, strong fluorescence is only seen on surfaces facing the excitation beam. The fluorescence intensity is reduced as a result of an inner filter effect generated by some chemicals' absorption of the excitation or emission wavelength in the UV province. The observed values of the absorption wavelength of ligand (HL) and mixed ligand complexes (1a-2a) in the range of 335–337 nm, the bovine serum albumin excitation wavelength of 278 nm, and emission wavelength of 350 nm were used to assess the effect of IFE in this approach. Equation (12) is employed to solve IFE in this instance as well (Table 4). […]

CT-DNA = test: DNA thermal denaturation (biothermodynamic properties); type: binding, calf thymus; conditions: for Tm (K) / Tm °C of DNA-compound adduct: 260 nm, [DNA]/[Complex] = 1; for Tm °C of DNA-compound adduct: CT-DNA alone 68°C; for ΔH°: Van't Hoff equation; for ΔTm °C: versus free DNA (68°C); for ΔG°: −R.Tm.lnKm
Description: Thermal denaturation characteristics were executed by a UV-visible spectrophotometer in a temperature-controlled sample container in both the presence and absence of the substances. In a Tris-HCl buffer solution with a pH of 7.4, all substances were incubated with CT-DNA in a 1 : 1 ratio. Temperature increases of two degrees Celsius per minute were applied to test substances in the range of 25 to 100°C, and the changes in absorbance at 260 nm were carefully scrutinized.
DNA denaturation contributes to the root cause of several chronic diseases, hereditary disorders, and a reduction in the ability of DNA repair to work properly. The biothermodynamic properties were further supported to determine the ability of stabilization of the double-standard DNA, and it offers details on the structural alterations, the degree of the DNA-compound system, the external binding-mediated neutralization of phosphate charges on DNA, and the stacking interactions, all of which work together to raise the DNA's melting point. […] The Van't Hoff (9) and Gibbs Helmholtz equations (10) were supportive in evaluating the biothermodynamic parameters, which are enclosed in Table 2. […] The influencing factors between test compounds and DNA mostly depend on the type of interaction mode. Because of the driving forces, H-bonds, weak Van der Waals forces, and electrostatic modes of binding all occur while the enthalpy is favourable. Hydrophobic forces induce binding while entropy is favourable; on the other hand, the loss of structural degrees of freedom leads to undesirable entropic changes. As per Ross and colleagues, the findings for ΔH° and ΔS° can alternatively be derived in the following favourable sequence. If ΔH° > 0 and ΔS° > 0, this attributes intercalation due to hydrophobic forces of attraction. If ∆H° < 0 and ΔS° < 0, this involves weak Van der Waals forces of attraction and H-bonding interactions. On the other hand, if ΔH° < 0 (or), ΔH°≈0 and ∆S° > 0, this indicates the electrostatic mode of binding possible between DNA and compounds [28, 68]. […] Furthermore, it is widely acknowledged that the hydration and generation of the compound-deoxyribonucleic acid adduct system via the counter ion liberating mechanism are highly dependent on the hydrophobic forces of attraction.

SMILES: [O-]c1ccccc1N=Cc1ccc(N2CCOCC2)cc1.[O-]c1ccccc1N=Cc1ccc(N2CCOCC2)cc1.[Zn+2].c1ccc(-c2ccccn2)nc1 [(2a), [Zn(L)2(bpy)]]
- Kass (BSA), SV method II (BSA): 52910 M⁻¹
- n (BSA), SV method II (BSA): 1.041
- KSV (BSA), SV method I (BSA): 48050 M⁻¹
- P (BSA), ratio of fluorescence quantum efficiency (BSA): 0.348
- Kq (BSA), SV method I (BSA): 4.805e+12 M⁻¹ s⁻¹
- ∆Gb° (BSA), SV method II (BSA): −26.9 kJM^−1
- ΔS° (CT-DNA): –8.4501 cal mol^–1
- Tm (K) (CT-DNA): 351 K
- Tm °C of DNA-compound adduct (CT-DNA): 78 °C
- Binding constant Kr at 298 K (CT-DNA): 1.8287 × 10^4 M^–1
- ΔH° (CT-DNA): –8.3292 kcal mol^–1
- ΔTm °C (CT-DNA): 10 °C
- ΔG° (CT-DNA): –5.3632 kcal mol^–1

SMILES: Oc1ccccc1N=Cc1ccc(N2CCOCC2)cc1 [(HL), 2-(4-morpholinobenzylideneamino)phenol]
- Kass (BSA), SV method II (BSA): 10620 M⁻¹
- n (BSA), SV method II (BSA): 0.926
- KSV (BSA), SV method I (BSA): 26390 M⁻¹
- P (BSA), ratio of fluorescence quantum efficiency (BSA): 0.464
- Kq (BSA), SV method I (BSA): 2.639e+12 M⁻¹ s⁻¹
- ∆Gb° (BSA), SV method II (BSA): −23.0 kJM^−1
- ΔS° (CT-DNA): –13.7851 cal mol^–1
- Tm (K) (CT-DNA): 347 K
- Tm °C of DNA-compound adduct (CT-DNA): 74 °C
- Binding constant Kr at 298 K (CT-DNA): 1.5169 × 10^4 M^–1
- ΔH° (CT-DNA): –9.8083 kcal mol^–1
- ΔTm °C (CT-DNA): 6 °C
- ΔG° (CT-DNA): –5.0249 kcal mol^–1

SMILES: [Cu+2].[O-]c1ccccc1N=Cc1ccc(N2CCOCC2)cc1.[O-]c1ccccc1N=Cc1ccc(N2CCOCC2)cc1.c1ccc(-c2ccccn2)nc1 [(1a), [Cu(L)2(bpy)]]
- Kass (BSA), SV method II (BSA): 87340 M⁻¹
- n (BSA), SV method II (BSA): 1.059
- KSV (BSA), SV method I (BSA): 86910 M⁻¹
- P (BSA), ratio of fluorescence quantum efficiency (BSA): 0.252
- Kq (BSA), SV method I (BSA): 8.691e+12 M⁻¹ s⁻¹
- ∆Gb° (BSA), SV method II (BSA): −28.2 kJM^−1
- ΔS° (CT-DNA): –6.9577 cal mol^–1
- Tm (K) (CT-DNA): 353 K
- Tm °C of DNA-compound adduct (CT-DNA): 80 °C
- Binding constant Kr at 298 K (CT-DNA): 1.9000 × 10^4 M^–1
- ΔH° (CT-DNA): –7.9071 kcal mol^–1
- ΔTm °C (CT-DNA): 12 °C
- ΔG° (CT-DNA): –5.4511 kcal mol^–1
